# Assay results taken from patent publication US5134073A, “Microbiologically produced N-acetyl-2,3-didehydroleucine acylase” (Degussa Aktiengesellschaft, priority 1989, dated 1992).
# Several values for one entry are separate records, joined by “and”; a condition that tells them apart may be missing. Identical values can stand only once. Like-named read-outs stand apart in the source and are kept apart here. Where a SMILES comes first, the peptide text is derived from it.
# Key:
# [1] = tested on: N-acetyldehydroleucine acylase; assay: Hydrolysis of other compounds by the acylase (TLC / amino acid analyzer); format: biochemical, Zoogloea ramigera; conditions: for rel. activity (%): 50 mM test substrate, 0.1 M tris/HCl pH 9, 25° C., hydrolysis rate with N-acetyldehydroleucine = 100%
# Method: A qualitative check was performed for 81 compounds to see whether they are accepted as substrate by the acylase. The test batches contained:
# After 16 and 40 hours incubation at 25° C., specimens were taken from the batches, most of which specimens were analyzed in comparison to substrate standards by means of thin-layer chromatography (70% (v/v) ethanol as mobile solvent). The detection took place with ninhydrin spray reagent. A few specimens were tested in addition or alternatively with the amino acid analyzer.
# The amino acids produced from the amino acid amides by means of the action of acylase were detected quantitatively with the amino acid analyzer.
# [2] = tested on: N-acetyldehydroleucine acylase; assay: Influence of additive substances on the splitting of N-acetyldehydroleucine under standard conditions; format: biochemical, Zoogloea ramigera
# Method: The mixing together of the batches, their storage and the taking of specimens took place under sterile conditions. The standard conditions for the enzyme test were:
# 20 mM N-Acetyldehydroleucine
# [3] = tested on: N-acetyldehydroleucine acylase; assay: Acylase activity versus concentration of N-acetyldehydroamino acids (kinetic data); format: biochemical, Zoogloea ramigera; conditions: glycine, 0.1 M, pH 9, 30° C.
# Method: The activity of the acylase was determined under standard conditions (cf. Example 8a)) with various N-acetyldehydroamino acids in concentrations of 0.1 to 300 mM. A second series of measurements with N-acetyldehydroleucinein the above-indicated concentration range was placed in 0.1 M tris/phosphoric acid buffer.
# Reaction conditions: 0.1 M glycine, pH 9, 30° C.
# Adaptation to the equation v = Vmax. · S/(KM + S +
# ADL acylase = assay: Stability of the acylase in the presence of different anions; format: physicochemical, Zoogloea ramigera; conditions: sodium salt 0.5 M in 50 mM glycine pH 11, 20° to 25° C., raw extract; 500000 µM
# Method: The influence of different anions on the stability of ADL acylase was investigated. Raw extract which had been compounded with glycerin to 43.5% (w/v) was diluted 1 : 10 with 0.5 molar solutions of various sodium salts in 50 mM glycine (pH 11) and stored at room temperature (20° to 25° C.). Specimens were taken from time-to-time and their enzymatic activity measured under standard conditions, as described in Example 8a).
Compound,rel. activity (%) [1],% Residual activity ([2]; inhibitor 1 mM),% Residual activity ([2]; inhibitor 10 mM),also measured
CC(C)C[C@@H](N)C(N)=O [D-leucine amide],3.82%,,,Substrate specificity: hydrolysis by the acylase [1]: hydrolyzes
[Cl][Mn][Cl] [MnCl2],,99%,87%,
"C=C(NC(C)=O)C(=O)O [ADA, 2-acetylamino acrylic acid]",,,,% Vmax [3]: 90%; Km [3]: 6.68 mM; Substrate specificity: hydrolysis by the acylase [1]: hydrolyzes
CSCC[C@H](N)C(N)=O [L-methionine amide],4.69%,,,Substrate specificity: hydrolysis by the acylase [1]: hydrolyzes
[Ca+2].[Cl-].[Cl-] [CaCl2],,,93%,
CN(C)C(=O)Oc1cccc([N+](C)(C)C)c1 [Neostigmine],,102%,82%,% Residual activity ([2]; inhibitor 100 mM): 0%
CC(=O)O [Acetate],,,,% Residual activity after 3 days (ADL acylase): 86%; % Residual activity after 6 days (ADL acylase): 81%; % Residual activity after 21 days (ADL acylase): 6%
"COC(=O)NC(C(=O)O)C(C)C (racemic) [N-methoxycarbonyl-D,L-valine]",0%,,,
O=S(=O)(O)O [Sulfate],,,,% Residual activity after 3 days (ADL acylase): 89%; % Residual activity after 6 days (ADL acylase): 94%; % Residual activity after 21 days (ADL acylase): 15%
"CNC(CC(C)C)C(=O)O (racemic) [N-methyl-D,L-leucine]",0%,,,
C[C@H](N)C(=O)NCC(=O)O [L-alanyl glycine] (H-Ala-Gly-OH),0%,,,
[Cl][Hg][Cl] [HgCl2],,84%,70%,
[Cl-].[Cl-].[Mg+2] [MgCl2],,95%,88%,
CC(=O)N[C@@H](C)C(=O)N[C@H](C(=O)O)C(C)C [N-acetyl-L-alanyl-L-valine] (Ac-Ala-Val-OH),0%,,,
O[C@H](CS)[C@H](O)CS (racemic) [Dithiothreitol],,103%,58%,
NC(=O)CI [iodine acetamide],,104%,74%,
"CC(C)CC(NC(=O)c1ccccc1)C(=O)O (racemic) [N-benzoyl-D,L-leucine]",0%,,,
NC(=O)[C@H](N)Cc1c[nH]c2ccccc12 [D-tryptophane amide],,,,Substrate specificity: hydrolysis by the acylase [1]: hydrolyzes
Cl [Chloride],,,,% Residual activity after 3 days (ADL acylase): 35%; % Residual activity after 6 days (ADL acylase): 0%; % Residual activity after 21 days (ADL acylase): 0%

Compound,rel. activity (%) [1],% Residual activity ([2]; inhibitor 1 mM),% Residual activity ([2]; inhibitor 10 mM),also measured
CC(=O)NCC(=O)O [N-acetyl glycine],0%,,,
C[C@H](N)C(N)=O [L-alanine amide],0.35%,,,
CC(=O)N[C@H](C(=O)O)C(C)C [N-acetyl valine],,,,Substrate specificity: hydrolysis by the acylase [1]: not
NC(=O)[C@@H](N)Cc1c[nH]c2ccccc12 [tryptophane amide],,,,Substrate specificity: hydrolysis by the acylase [1]: split with a reaction rate on the order like that achieved with N-acetyldehydroamino acids
[N-]=[N+]=[N-].[Na+] [NaN3],,105%,103%,
c1ccc(-c2ccccn2)nc1 [Bipyridine],,91%,70%,
[Cl-].[Cl-].[Zn+2] [ZnCl2],,95%,82%,
O=C(O)CC(O)(CC(=O)O)C(=O)O [Citrate],,99%,84%,
c1cnc2c(c1)ccc1cccnc12 [Phenanthroline],,94%,52%,
CC(C)C[C@H](N)C(=O)NCC(=O)O [L-leucyl glycine] (H-Leu-Gly-OH),0%,,,
"O=C(O)c1cc[c]([Hg][OH])cc1 [pCMB, parahydroxy mercury benzoate]",,104%,98%,
N[C@@H](Cc1c[nH]c2ccccc12)C(=O)NCC(=O)O [L-tryptophyl glycine] (H-Trp-Gly-OH),0%,,,
CC(C)C[C@H](NC(=O)[C@H](C)N)C(=O)O [L-alanyl-L-leucine] (H-Ala-Leu-OH),0%,,,
CC(=O)N[C@@H](Cc1ccccc1)C(=O)O [N-acetyl-L-phenylalanine],0%,,,
[Cl-].[Cl-].[Co+2] [CoCl2],,91%,85%,
CC(C)C[C@H](N)C(N)=O [L-leucine amide],6.80%,,,Substrate specificity: hydrolysis by the acylase [1]: hydrolyzes
CC(=O)N[C@@H](CC(C)C)C(=O)O [N-acetyl leucine],,,,Substrate specificity: hydrolysis by the acylase [1]: not
O=CO [Formate],,,,% Residual activity after 3 days (ADL acylase): 76%; % Residual activity after 6 days (ADL acylase): 63%; % Residual activity after 21 days (ADL acylase): 2%
CC(C)[C@H](NC(N)=O)C(=O)O [N-carbamoyl-L-valine],0%,,,

Compound,rel. activity (%) [1],% Residual activity ([2]; inhibitor 1 mM),% Residual activity ([2]; inhibitor 10 mM),also measured
"OCCS [MeSH, mercaptoethanol]",,93%,99%,% Residual activity ([2]; inhibitor 100 mM): 81%
N[C@@H](CCC(=O)N[C@@H](CS)C(=O)NCC(=O)O)C(=O)O [Glutathione reduced],,,,% Residual activity [2]: 95%
"COC(=O)NC(CC(C)C)C(=O)O (racemic) [N-methoxycarbonyl-D,L-leucine]",0%,,,
O=C(O)CN(CCN(CC(=O)O)CC(=O)O)CC(=O)O [EDTA],,,,% Residual activity [2]: 95%
"O=C(O)c1cc[c]([Hg][OH])cc1 [pOHMB, parahydroxy mercuric benzoate]",,93%,91%,
NC(=O)N[C@@H](Cc1ccccc1)C(=O)O [N-carbamoyl-L-phenylalanine],0%,,,
"O=S(=O)(F)Cc1ccccc1 [PMSF, phenylmethane sulfonyl fluoride]",,,,% Residual activity ([2]; inhibitor 0.0001 mM): 10%; % Residual activity ([2]; inhibitor 0.01 mM): 0%; Inhibition of the acylase ([2]; phenylmethane sulfonyl fluoride still in micromolar concentration): sharply inhibit; Influence of inhibitors on the acylase ([2]; phenylmethane sulfonylfluoride: 0.001 mM): exert an inhibitory action
NNC(N)=O [Semicarbazide],,113%,93%,
CC(C)C[C@H](NC(=O)CN)C(=O)O [Glycyl-L-leucine],0%,,,
"N=C(N)c1ccc(N)cc1 [pABA, paraaminobenzamidine]",,,89%,% Residual activity ([2]; inhibitor 100 mM): 54%; % Residual activity ([2]; inhibitor 200 mM): 0%
Phosphate,,,,% Residual activity after 3 days (ADL acylase): 96%; % Residual activity after 6 days (ADL acylase): 105%; % Residual activity after 21 days (ADL acylase): 27%
N[C@@H]1CON=C1O [Cycloserine],,111%,105%,
CN[C@@H](CCC(=O)O)C(=O)O [N-methyl-L-glutamic acid],0%,,,
O=C(O)CI [iodine acetate],,,,% Residual activity [2]: 76% and 49%
C[C@H](N)C(=O)N[C@@H](Cc1ccccc1)C(N)=O [L-alanyl-L-phenylalanine amide],0%,,,
C[C@@H](N)C(N)=O [D-alanine amide],0.46%,,,
O=S(=O)([O-])[O-].[Cu+2] [CuSO4],,87%,83%,
"CC(=O)NC(CC(C)C)C(=O)O (racemic) [N-acetyl-D,L-leucine]",0%,,,
NC(=O)[C@@H](N)Cc1c[nH]c2ccccc12 [L-tryptophane amide],20.4%,,,Substrate specificity: hydrolysis by the acylase [1]: hydrolyzes
